# Assay results published in patent US12448368B2, “Indole compounds as androgen receptor modulators” (NIDO BIOSCIENCES, INC., priority 2020, dated 2025).
# Biological target: T1, androgen receptor (AR) (Homo sapiens, UniProt P10275, T878A)
# T1 construct: LNCaP cells expressing ARR2PB-FireflyLuc and CMV-RenillaLuc; endogenous in cells; host or cells: LNCaP cells carrying ARR2PB-FireflyLuc and CMV-RenillaLuc reporters
# T1 sequence (P10275 1-920 T878A): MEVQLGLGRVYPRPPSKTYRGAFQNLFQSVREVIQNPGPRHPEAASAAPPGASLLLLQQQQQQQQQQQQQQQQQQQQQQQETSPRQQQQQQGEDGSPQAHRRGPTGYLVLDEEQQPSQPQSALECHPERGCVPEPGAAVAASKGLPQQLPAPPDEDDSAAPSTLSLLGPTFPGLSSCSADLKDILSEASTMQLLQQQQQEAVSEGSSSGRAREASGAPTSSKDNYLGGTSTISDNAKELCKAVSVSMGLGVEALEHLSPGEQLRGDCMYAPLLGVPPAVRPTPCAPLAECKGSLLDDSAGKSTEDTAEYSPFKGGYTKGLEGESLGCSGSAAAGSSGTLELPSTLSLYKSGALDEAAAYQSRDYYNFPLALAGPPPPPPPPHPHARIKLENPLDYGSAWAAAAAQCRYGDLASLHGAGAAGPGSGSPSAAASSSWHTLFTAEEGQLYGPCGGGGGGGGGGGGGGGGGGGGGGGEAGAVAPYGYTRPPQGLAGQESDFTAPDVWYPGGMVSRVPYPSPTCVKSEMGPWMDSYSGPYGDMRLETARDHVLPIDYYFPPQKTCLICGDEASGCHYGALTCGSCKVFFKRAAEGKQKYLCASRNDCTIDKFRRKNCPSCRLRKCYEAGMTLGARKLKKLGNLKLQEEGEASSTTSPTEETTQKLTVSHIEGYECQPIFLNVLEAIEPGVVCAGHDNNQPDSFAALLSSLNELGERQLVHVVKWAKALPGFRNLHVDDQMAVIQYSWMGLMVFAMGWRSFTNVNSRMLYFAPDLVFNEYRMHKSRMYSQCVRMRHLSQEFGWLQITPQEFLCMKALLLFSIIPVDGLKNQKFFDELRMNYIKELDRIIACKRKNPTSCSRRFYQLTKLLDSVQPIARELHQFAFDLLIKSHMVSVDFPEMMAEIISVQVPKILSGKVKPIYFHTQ
# Experiment: AR reporter assay in LNCaP cells expressing ARR2PB-FireflyLuc and CMV-RenillaLuc, antagonist mode (% remaining activity, IC50)
# Format: cell-based
# Conditions: 48 h at 37° C., class symbols A-D, read-out: IC50
# Experimental: LNCaP cells expressing ARR2PB-FireflyLuc and CMV-RenillaLuc were treated with indicated concentrations of test compounds, enzalutamide (negative control), or DHT (positive control)+/−0.5 nM DHT for 48 h at 37° C. […] Remaining activity (antagonist mode) was calculated as % Remaining Activity=100×[(Readsample−LCave)/(HCave−LCave)] where HC is cells treated with 0.5 nM DHT only and LC is cells treated with 10 uM enzalutamide+0.5 nM DHT. Activation (agonist mode) was calculated as % Activation=100×[(ReadSample−LCave)/(HCave−LCave)] where HC is cells treated with 1 uM DHT and LC is cells treated with DMSO. Dose response curves and IC50 values were calculated using non-linear regression analysis in XLfit.
# The designation “A” indicates an IC50 value of >10 μM, “B” indicates an IC50 value between 1 μM and 10 μM; “C” indicates an IC50 value between 100 nM and 1 μM; and “D” indicates an IC50 value of less than 100 nM.
row,SMILES,IC50
1,CNC(=O)N1CCCc2nc(-c3n[nH]c4cc(F)c(F)cc34)ccc21 [Compound 38],1000 to 10000 nM
2,Fc1cc2[nH]nc(-c3ccc4c(n3)COCC4)c2cc1F [Compound 39],1000 to 10000 nM
3,Fc1cc2[nH]nc(-c3ccc4c(n3)CCOC4)c2cc1F [Compound 40],1000 to 10000 nM
4,O=C1NCc2nc(-c3n[nH]c4cc(F)c(F)cc34)ccc21 [Compound 41],1000 to 10000 nM
5,CN1Cc2nc(-c3n[nH]c4cc(F)c(F)cc34)ccc2C1=O [Compound 42],1000 to 10000 nM
6,Cc1cc(F)cc2c(-c3ccc4c(n3)CCCN4)n[nH]c12 [Compound 43],100 to 1000 nM
7,Cc1cc2[nH]nc(-c3ccc4c(n3)CCCN4)c2cc1F [Compound 44],100 to 1000 nM
8,Cc1cc2c(-c3ccc4c(n3)CCCN4)n[nH]c2cc1F [Compound 45],100 to 1000 nM
9,CC1CCNc2ccc(-c3n[nH]c4cc(F)c(F)cc34)nc21 (stereo not shown) [Compound 46],< 100 nM
10,CC1CCNc2cnc(-c3n[nH]c4cc(F)c(F)cc34)cc21 (stereo not shown) [Compound 49],1000 to 10000 nM
11,CC1(C)CCNc2ccc(-c3n[nH]c4cc(F)c(F)cc34)nc21 [Compound 50],100 to 1000 nM
12,CC1NC(=O)c2ccc(-c3n[nH]c4cc(F)c(F)cc34)nc21 (stereo not shown) [Compound 51],100 to 1000 nM
13,CC1(C)NC(=O)c2ccc(-c3n[nH]c4cc(F)c(F)cc34)nc21 [Compound 52],100 to 1000 nM
14,Cc1nc(-c2n[nH]c3cc(F)c(F)cc23)ccc1N [Compound 53],1000 to 10000 nM
15,CCc1nc(-c2n[nH]c3cc(F)c(F)cc23)ccc1N [Compound 54],100 to 1000 nM
16,Fc1cc2[nH]nc(-c3ncc4c(n3)CCCN4)c2cc1F [Compound 55],> 10000 nM
17,Fc1cc2[nH]nc(-c3cc4c(cn3)NCCC4)c2cc1F [Compound 56],1000 to 10000 nM
18,c1ccc2c(-c3cnc4c(c3)NCCC4)n[nH]c2c1 [Compound 57],> 10000 nM
19,Fc1cc2[nH]nc(-c3cnc4c(n3)CCCN4)c2cc1F [Compound 58],> 10000 nM
20,Cc1cc(-c2n[nH]c3cc(F)c(F)cc23)nc2c1NCCC2 [Compound 59],100 to 1000 nM
21,CC1(C)CCNc2cnc(-c3n[nH]c4cc(F)c(F)cc34)cc21 [Compound 60],> 10000 nM
22,FC(F)(F)c1ccc(-c2n[nH]c3ccccc23)nc1 [Compound 61],1000 to 10000 nM
23,Fc1ccc(-c2n[nH]c3ccccc23)nc1 [Compound 62],1000 to 10000 nM
24,N#Cc1cccc2c(-c3ccc4ccc(F)cc4n3)n[nH]c12 [Compound 63],< 100 nM
25,c1ccc2c(-c3ccc(N4CCNCC4)cn3)n[nH]c2c1 [Compound 64],> 10000 nM
26,CN1CCN(c2ccc(-c3n[nH]c4ccccc34)nc2)CC1 [Compound 65],> 10000 nM

row,SMILES,IC50
1,c1ccc2c(-c3cc(N4CCNCC4)ccn3)n[nH]c2c1 [Compound 66],> 10000 nM
2,CN1CCN(c2ccnc(-c3n[nH]c4ccccc34)c2)CC1 [Compound 67],> 10000 nM
3,CN1CCN(c2cccc(-c3n[nH]c4ccccc34)n2)CC1 [Compound 68],> 10000 nM
4,Fc1cc2[nH]nc(-c3ccc4c(n3)OCCN4)c2cc1F [Compound 69],> 10000 nM
5,CC1CNc2ccc(-c3n[nH]c4cc(F)c(F)cc34)nc2O1 (stereo not shown) [Compound 70],> 10000 nM
6,CC1(C)NCc2ccc(-c3n[nH]c4cc(F)c(F)cc34)nc21 [Compound 71],> 10000 nM
7,CC(C)(O)c1ccc(-c2n[nH]c3cc(F)c(F)cc23)nc1 [Compound 72],> 10000 nM
8,CC(C)(O)c1ccc(-c2n[nH]c3cc(F)c(F)cc23)cn1 [Compound 73],> 10000 nM
9,Fc1cc2[nH]nc(-c3ccc4c(n3)NCCO4)c2cc1F [Compound 74],1000 to 10000 nM
10,CN1CCOc2ccc(-c3n[nH]c4cc(F)c(F)cc34)nc21 [Compound 75],1000 to 10000 nM
11,CC(C)N1CCOc2ccc(-c3n[nH]c4cc(F)c(F)cc34)nc21 [Compound 76],1000 to 10000 nM
12,CC1(C)CCNc2ccc(-c3n[nH]c4ccccc34)nc21 [Compound 77],100 to 1000 nM
13,CC1(C)CCNc2ccc(-c3n[nH]c4ccc(F)cc34)nc21 [Compound 78],100 to 1000 nM
14,CCOC(=O)c1coc(-c2n[nH]c3c(C)cccc23)n1 [Compound 79],> 10000 nM
15,Cc1cc(-c2n[nH]c3cc(F)c(F)cc23)nc2c1NC(=O)CC2 [Compound 80],1000 to 10000 nM
16,c1ccc(-c2cc(-c3ccc4c(n3)CCCN4)n[nH]2)cc1 [Compound 81],> 10000 nM
17,Cc1[nH]nc(-c2ccc3c(n2)CCCN3)c1C [Compound 82],> 10000 nM
18,c1cc2c(nc1-c1n[nH]c3c1COCC3)CCCN2 [Compound 83],> 10000 nM
19,c1ccc(-c2cc(-c3ccc4c(n3)CCCN4)n[nH]2)nc1 [Compound 84],> 10000 nM
20,N#Cc1cccc2c(-c3ccc4ncccc4n3)nn(C3CCCCO3)c12 (stereo not shown) [Compound 85],> 10000 nM
21,NCc1cccc2c(-c3ccc4ncccc4n3)n[nH]c12 [Compound 86],100 to 1000 nM
22,CC(C)NCc1cccc2c(-c3ccc4ncccc4n3)n[nH]c12 [Compound 87],1000 to 10000 nM
23,CC(C)c1nc(-c2n[nH]c3cc(F)c(F)cc23)ccc1N [Compound 88],1000 to 10000 nM
24,CC(C)Oc1nc(-c2n[nH]c3cc(F)c(F)cc23)ccc1N [Compound 89],1000 to 10000 nM
25,CCOc1nc(-c2n[nH]c3cc(F)c(F)cc23)ccc1N [Compound 90],1000 to 10000 nM
26,COc1nc(-c2n[nH]c3cc(F)c(F)cc23)ccc1N [Compound 91],100 to 1000 nM

row,SMILES,IC50
1,Nc1ccc(-c2n[nH]c3cc(F)c(F)cc23)nc1C(F)(F)F [Compound 92],100 to 1000 nM
2,Nc1ccc(-c2n[nH]c3cc(F)c(F)cc23)nc1Cl [Compound 93],100 to 1000 nM
3,CNc1ccc(-c2n[nH]c3cc(F)c(F)cc23)nc1C [Compound 94],1000 to 10000 nM
4,CCNc1ccc(-c2n[nH]c3cc(F)c(F)cc23)nc1C [Compound 95],1000 to 10000 nM
5,CC(=O)Nc1ccc(-c2n[nH]c3cc(F)c(F)cc23)nc1C [Compound 96],> 10000 nM
6,CC(=O)N(C)c1ccc(-c2n[nH]c3cc(F)c(F)cc23)nc1C [Compound 97],> 10000 nM
7,Cc1nc(-c2n[nH]c3cc(F)c(F)cc23)ccc1N(C)C [Compound 98],1000 to 10000 nM
8,COc1ccc(-c2n[nH]c3cc(F)c(F)cc23)nc1C [Compound 99],100 to 1000 nM
9,CNC(=O)c1ccc(-c2n[nH]c3cc(F)c(F)cc23)nc1C [Compound 100],> 10000 nM
10,Cc1nc(-c2n[nH]c3cc(F)c(F)cc23)ccc1C(N)=O [Compound 101],> 10000 nM
11,Cc1nc(-c2n[nH]c3cc(F)c(F)cc23)ccc1C(=O)N(C)C [Compound 102],> 10000 nM
12,Cc1nc(-c2n[nH]c3cc(F)c(F)cc23)ccc1C#N [Compound 103],< 100 nM
13,CC1c2nc(-c3n[nH]c4cc(F)c(F)cc34)ccc2C(=O)N1C (stereo not shown) [Compound 104],100 to 1000 nM
14,CC1NC(=O)c2ccc(-c3nn(C)c4cc(F)c(F)cc34)nc21 (stereo not shown) [Compound 105],> 10000 nM
15,COc1ccc(CN2C(=O)c3ccc(-n4ncc5cc(F)c(F)cc54)nc3C2C)cc1 (stereo not shown) [Compound 106],> 10000 nM
16,CC1NC(=O)c2ccc(-n3ncc4cc(F)c(F)cc43)nc21 (stereo not shown) [Compound 107],> 10000 nM
17,CC1NC(=O)c2ccc(-n3cnc4cc(F)c(F)cc43)nc21 (stereo not shown) [Compound 108],> 10000 nM
18,CC1NC(=O)c2ccc(-c3n[nH]c4ccccc34)cc21 (stereo not shown) [Compound 109],100 to 1000 nM
19,CC1(C)NC(=O)c2ccc(-c3n[nH]c4cc(F)c(F)cc34)cc21 [Compound 110],> 10000 nM
20,Fc1ccc(-c2n[nH]c3cc(F)ccc23)nc1 [Compound 111],100 to 1000 nM
21,Fc1ccc(-c2n[nH]c3cccnc23)nc1 [Compound 112],> 10000 nM
22,Fc1ccc(-c2n[nH]c3ncccc23)cc1 [Compound 113],1000 to 10000 nM
23,O=C1NCc2nc(-c3n[nH]c4ccccc34)ccc21 [Compound 114],1000 to 10000 nM
24,O=S1(=O)CCNc2ccc(-c3n[nH]c4cc(F)c(F)cc34)nc21 [Compound 115],> 10000 nM
